In brackets after ≈: the same amount, converted by molar mass.
Experiments:
Experiment in all cases: CLSI broth dilution MIC determination
Assay type in all cases: cell-based
[1] = test system: E. coli ATCC 25922; conditions: Escherichia coli, ATCC25922, E. coli ATCC 25922 (MP-4); read-out: MIC
Outline: (§1)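 MICs were measured by broth dilution following CLSI standard procedures. Azithromycin and solithromycin served as control macrolides in many cases. Macrolide-resistance genotypes in the panel may be constitutive or inducible.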

[2] = test system: E. coli CTX-M-14; conditions: Escherichia coli, CTXM14, read-out: MIC
Outline: as §1

[3] = test system: E. coli NDM-1; conditions: Escherichia coli, NDM1, read-out: MIC
Outline: as §1

[4] = test system: E. coli TEM-1; conditions: Escherichia coli, TEM1
Outline: as §1

[5] = test system: H. influenzae ATCC49247; conditions: Haemophilus influenzae, read-out: MIC
Outline: as §1

[6] = test system: K. pneumoniae TEM-10; conditions: Klebsiella pneumoniae, TEM10, read-out: MIC
[7] = test system: S. aureus ATCC 29213; conditions: Staphylococcus aureus, ATCC29213; S. aureus ATCC 29213 (MP-12); read-out: MIC
Outline: as §1

[8] = test system: S. aureus MRSA: USA100; conditions: Staphylococcus aureus; S. aureus MRSA: USA100 (MP-618 UNT-096); read-out: MIC
Outline: as §1

[9] = test system: S. aureus MRSA: USA300; conditions: Staphylococcus aureus; S. aureus MRSA: USA300 (MP-549, msr(a)); read-out: MIC
Outline: as §1

[10] = test system: S. aureus USA600, GISA; conditions: Staphylococcus aureus; S. aureus USA600, GISA (MP-619 UNT-120); read-out: MIC
Outline: as §1

[11] = test system: S. aureus erm A genotype; conditions: Staphylococcus aureus; S. aureus erm A genotype (MP-620 UNT-146); read-out: MIC
Outline: as §1

[12] = test system: S. pneumoniae ATCC 49619; conditions: Streptococcus pneumoniae, ATCC49619, S. pneumoniae ATCC 49619 (MP-21); read-out: MIC
Outline: as §1

[13] = test system: S. pneumoniae erm B + mef A genotype; conditions: Streptococcus pneumoniae
Outline: as §1

[14] = test system: S. pneumoniae erm B + tet(M,O) genotype; conditions: Streptococcus pneumoniae
Outline: as §1

[15] = test system: S. pneumoniae mef A genotype (first strain so labelled); conditions: Streptococcus pneumoniae, first strain (MP-626 UNT-038)
Outline: as §1

[16] = test system: S. pneumoniae mef A genotype (second strain so labelled); conditions: Streptococcus pneumoniae, second strain (MP-627 UNT-039), read-out: MIC
Outline: as §1

[17] = test system: S. pyogenes ATCC 19615; conditions: Streptococcus pyogenes, ATCC19615, S. pyogenes ATCC 19615 (MP-19); read-out: MIC
[18] = test system: S. pyogenes Macrolide-resistant; conditions: Streptococcus pyogenes, S. pyogenes Macrolide-resistant (MP-625 UNT-014); read-out: MIC
[19] = test system: E. faecalis ATCC 29212; conditions: Enterococcus faecalis, ATCC29212, E. faecalis ATCC 29212 (MP-24); read-out: MIC
[20] = test system: E. faecalis Vancomycin-resistant; conditions: Enterococcus faecalis, E. faecalis Vancomycin-resistant (UNT-039); read-out: MIC
[21] = test system: A. baumannii ATCC 19606; conditions: Acinetobacter baumannii, ATCC19606; A. baumannii ATCC 19606 (MP-15); read-out: MIC
[22] = test system: A. baumannii imipenem-resistant; conditions: Acinetobacter baumannii, read-out: MIC
[23] = test system: A. baumannii chromosomal class C; conditions: Acinetobacter baumannii, read-out: MIC
[24] = test system: A. baumannii IMP-4; conditions: Acinetobacter baumannii, IMP4, read-out: MIC
[25] = test system: K. pneumoniae ATCC 10031; conditions: Klebsiella pneumoniae, ATCC10031, K. pneumoniae ATCC 10031 (MP-14); read-out: MIC
[26] = test system: K. pneumoniae KPC-2; conditions: Klebsiella pneumoniae, KPC2, read-out: MIC
[27] = test system: K. pneumoniae SHV-12; conditions: Klebsiella pneumoniae, SHV12, read-out: MIC
[28] = test system: P. aeruginosa ATCC 27853; conditions: Pseudomonas aeruginosa, ATCC27853; P. aeruginosa ATCC 27853 (MP-3); read-out: MIC
[29] = test system: P. aeruginosa HPA101-1477; conditions: Pseudomonas aeruginosa, HPA1011477, read-out: MIC
[30] = test system: H. influenzae Erythro >4, Azithro 1; conditions: Haemophilus influenzae; read-out: MIC
Source text: MIC data was collected for the novel macrolides that this platform has produced against over 21 unique strains of B. subtilis, E. coli, S. aureus, S. pneumoniae, and H. influenzae, including several multidrug-resistant strains, with a special focus on macrolide resistant mechanisms (vide supra). […] CLSI standard procedures for broth dilution MIC determination were used. […] These genotypes can be constitutive or inducible.

Row | SMILES | MIC [1] | MIC [2] | MIC [3] | MIC [4] | MIC [5] | MIC [6] | MIC [7] | MIC [8] | MIC [9] | MIC [10] | MIC [11] | MIC [12] | MIC [13] | MIC [14] | MIC [15] | MIC [16] | MIC [17] | MIC [18] | MIC [19] | MIC [20] | also measured
1 | CC[C@H]1OC(=O)[C@@](C)(F)C(=O)[C@H](C)[C@@H](O[C@@H]2OC(C)CC(N(C)C)C2O)[C@](C)(OC)C[C@@H](C)C(=O)C[C@H]2N(CCCCn3cc(-c4cccc(N)c4)nn3)C(=O)O[C@]12C (stereo partly drawn) [FSM-21598] | > 32 µg/mL | > 32 µg/mL | > 32 µg/mL | > 32 µg/mL | 4 µg/mL (≈ 4.81 µM) | > 32 µg/mL | 32 µg/mL (≈ 38.5 µM) | > 32 µg/mL | 32 µg/mL (≈ 38.5 µM) | > 32 µg/mL | > 32 µg/mL | ≤ 0.0312 µg/mL | 8 µg/mL (≈ 9.63 µM) | ≤ 0.0312 µg/mL | ≤ 0.0312 µg/mL | 0.25 µg/mL (≈ 0.301 µM) | ≤ 0.0312 µg/mL | 0.25 µg/mL (≈ 0.301 µM) | ≤ 0.0312 µg/mL | > 32 µg/mL | MIC [21]: > 32 µg/mL; MIC [22]: > 32 µg/mL; MIC [23]: 32 µg/mL (≈ 38.5 µM); MIC [24]: > 32 µg/mL; MIC [25]: 8 µg/mL (≈ 9.63 µM); MIC [26]: > 32 µg/mL; MIC [27]: > 32 µg/mL; MIC [28]: > 32 µg/mL; MIC [29]: > 32 µg/mL; MIC [30]: 8 µg/mL (≈ 9.63 µM)
2 | C=C1C(=O)[C@H](C)C[C@@](C)(OC)[C@H](O[C@@H]2OC(C)CC(N(C)C)C2O)[C@@H](C)C(=O)[C@@H](C)C(=O)O[C@H](CC)[C@@]2(C)OC(=O)N(CCCCn3cc(-c4cccc(N)c4)nn3)[C@H]12 (stereo partly drawn) [FSM-21828] | > 32 µg/mL | > 32 µg/mL | > 32 µg/mL | > 32 µg/mL | 16 µg/mL (≈ 19.4 µM) | > 32 µg/mL | 4 µg/mL (≈ 4.85 µM) | > 32 µg/mL | > 32 µg/mL | > 32 µg/mL | > 32 µg/mL | ≤ 0.0312 µg/mL | 32 µg/mL (≈ 38.8 µM) | ≤ 0.0312 µg/mL | 0.0625 µg/mL (≈ 0.0758 µM) | 0.5 µg/mL (≈ 0.606 µM) | ≤ 0.0312 µg/mL | 0.5 µg/mL (≈ 0.606 µM) | 1 µg/mL (≈ 1.21 µM) | > 32 µg/mL | MIC [21]: > 32 µg/mL; MIC [22]: > 32 µg/mL; MIC [23]: > 32 µg/mL; MIC [24]: > 32 µg/mL; MIC [25]: 16 µg/mL (≈ 19.4 µM); MIC [26]: > 32 µg/mL; MIC [27]: > 32 µg/mL; MIC [28]: > 32 µg/mL; MIC [29]: > 32 µg/mL; MIC [30]: 16 µg/mL (≈ 19.4 µM)
3 | CC[C@H]1OC(=O)[C@@H](C)C(=O)[C@H](C)[C@@H](O[C@@H]2OC(C)CC(N(C)C)C2O)[C@](C)(OC)C[C@@H](C)C(=O)[C@H](C)[C@H]2N(C/C=C/Cn3cc(-c4cccc(N)c4)nn3)C(=O)O[C@]12C (stereo partly drawn) [FSM-100432] | > 32 µg/mL | > 32 µg/mL | > 32 µg/mL | > 32 µg/mL | 8 µg/mL (≈ 9.7 µM) | > 32 µg/mL | 1 µg/mL (≈ 1.21 µM) | > 32 µg/mL | > 32 µg/mL | > 32 µg/mL | > 32 µg/mL | < 0.0312 µg/mL | 2 µg/mL (≈ 2.42 µM) | < 0.0312 µg/mL | 0.125 µg/mL (≈ 0.152 µM) | 0.5 µg/mL (≈ 0.606 µM) | < 0.0312 µg/mL | 0.0625 µg/mL (≈ 0.0758 µM) | 0.125 µg/mL (≈ 0.152 µM) | > 32 µg/mL | MIC [21]: > 32 µg/mL; MIC [22]: > 32 µg/mL; MIC [23]: > 32 µg/mL; MIC [24]: > 32 µg/mL; MIC [25]: 32 µg/mL (≈ 38.8 µM); MIC [26]: > 32 µg/mL; MIC [27]: > 32 µg/mL; MIC [28]: > 32 µg/mL; MIC [29]: > 32 µg/mL; MIC [30]: 8 µg/mL (≈ 9.7 µM)

Source: patent US10633407B2, “14-membered ketolides and methods of their preparation and use” (President and Fellows of Harvard College, priority 2014, dated 2020)
